Reference: the supplement of paper PMC10331698
± gives the standard deviation of the averaged measurements.

Columns and labels:
Experiment in all cases: level (log10 ratio to DMSO vehicle control); higher = higher biomarker level / cell amount than vehicle control
Conditions in all cases: in DMSO
[1] = compound: C=C(C)C(=O)OCCC(F)(F)C(F)(F)C(F)(F)C(F)(F)C(F)(C(F)(F)F)C(F)(F)F [(Perfluoro-5-methylhexyl)ethyl 2-methylprop-2-enoate]
Description: (§1)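 BioMAP Diversity Plus panel of 12 human primary cell co-culture systems (3C, 4H, LPS, SAg, BT, BF4T, BE3C, CASM3C, HDF3CGF, KF3CT, MyoF, Mphg). Compounds were added 1 h before stimulation and left for 24 h (MyoF 48 h; BT 72 h for soluble read-outs or 6 d for IgG). Biomarkers were read by ELISA, cytotoxicity by SRB, PBMC viability and proliferation by Alamar Blue. Each well value was divided by the mean of 8 DMSO control wells on the same plate and log10 transformed; duplicate blinded samples were tested at 4 concentrations.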

[2] = compound: C=CC(=O)OCC(F)(F)C(F)(F)C(F)(F)C(F)(F)C(F)(F)C(F)(F)C(F)(F)F [1H,1H-Perfluorooctyl acrylate]
Description: as §1

[3] = compound: C=CC(F)(F)C(F)(F)C(F)(F)C(F)(F)C(F)(F)C(F)(F)C(F)(F)C(F)(F)C=C [1,8-Divinylperfluorooctane]
Description: as §1

[4] = compound: COC(=O)CCC(F)(F)C(F)(F)C(F)(F)C(F)(F)F [Methyl 2H,2H,3H,3H-perfluoroheptanoate]
Description: as §1

[5] = compound: FC(F)(F)C(F)(F)C(F)(F)C(F)(F)C(F)(F)C(F)(F)C(F)(F)C(F)(F)CCS [2-(Perfluorooctyl)ethanthiol]
Description: as §1

[6] = compound: O=C(O)C(F)(F)C(F)(F)F [Perfluoropropanoic acid]
Description: as §1

[7] = compound: OCC(F)(F)OC(F)(F)C(F)(F)OC(F)(F)CO [1H,1H,8H,8H-Perfluoro-3,6-dioxaoctane-1,8-diol]
Description: as §1

Test System	level (log10) ([1]; 6700 nM)	level (log10) ([1]; 20000 nM)	level (log10) ([2]; 6700 nM)	level (log10) ([2]; 20000 nM)	level (log10) ([2]; 60000 nM)	level (log10) ([3]; 6700 nM)	level (log10) ([3]; 20000 nM)	level (log10) ([4]; 6700 nM)	level (log10) ([4]; 20000 nM)	level (log10) ([4]; 60000 nM)	level (log10) ([5]; 6700 nM)	level (log10) ([5]; 20000 nM)	level (log10) ([6]; 6700 nM)	level (log10) ([6]; 20000 nM)	level (log10) ([6]; 60000 nM)	level (log10) ([7]; 6700 nM)	level (log10) ([7]; 20000 nM)	level (log10) ([7]; 60000 nM)
BT:sIL-17F	0.004 ± 0.15	-0.0015 ± 0.0092	-0.0975 ± 0.16	-0.324 ± 0.11	-0.372 ± 0.063	0.012 ± 0.037	0.051 ± 0.0057	0.014 ± 0.12	-0.0295 ± 0.052	-0.024 ± 0.068	-0.068 ± 0.055	0.092 ± 0.062	0.0335 ± 0.0035	0.0335 ± 0.023	-0.0045 ± 0.052	0.045	-0.0205 ± 0.023	-0.137 ± 0.096
BF4T:MMP-9	-0.036 ± 0.05	-0.007 ± 0.038	0.0065 ± 0.028	0.0035 ± 0.016	0.015 ± 0.033	-0.004 ± 0.071	-0.0115 ± 0.033	0.007 ± 0.034	0.0165 ± 0.047	0.012 ± 0.055	-0.047 ± 0.0099	-0.057 ± 0.013	-0.0065 ± 0.036	-0.0065 ± 0.037	0.0035 ± 0.032	-0.026 ± 0.047	-0.0145 ± 0.025	0.01 ± 0.037
3C:CXCL8/IL-8	0.0105 ± 0.03	0.054 ± 0.086	0.0075 ± 0.013	-0.008 ± 0.0042	0.016 ± 0.03	-0.023 ± 0.018	0.011 ± 0.034	-0.021 ± 0.023	-0.0045 ± 0.021	0.012 ± 0.03	0.002 ± 0.018	0.044 ± 0.028	0.007 ± 0.03	-0.001 ± 0.02	0.0255 ± 0.047	0.013 ± 0.014	0.014 ± 0.04	0.021 ± 0.081
4H:CD106/VCAM-1	-0.012 ± 0.016	-0.0005 ± 0.005	0.0165 ± 0.036	0.032 ± 0.023	0.0225 ± 0.059	-0.012 ± 0.021	0.0035 ± 0.00071	-0.021 ± 0.0071	0.01 ± 0.035	0.011 ± 0.013	-0.0055 ± 0.005	-0.0025 ± 0.012	-0.0085 ± 0.011	-0.0075 ± 0.00071	0 ± 0.014	0.0145 ± 0.012	-0.0105 ± 0.0021	-0.0025 ± 0.015
LPS:sPGE2	-0.038 ± 0.05	-0.016 ± 0.064	-0.045 ± 0.017	-0.0805 ± 0.0035	-0.109 ± 0.027	-0.005 ± 0.034	-0.035 ± 0.075	0.014 ± 0.033	0.0395 ± 0.0078	-0.0125 ± 0.04	-0.017 ± 0.025	-0.022 ± 0.011	-0.017 ± 0.05	-0.018 ± 0.0071	-0.011 ± 0.04	-0.0235 ± 0.019	-0.023 ± 0.045	-0.0195 ± 0.00071
BF4T:tPA	-0.002 ± 0.0057	-0.037 ± 0.031	-0.0045 ± 0.013	0.0025 ± 0.0021	-0.0075 ± 0.025	-0.0015 ± 0.018	0.0125 ± 0.015	-0.019 ± 0.0085	-0.023 ± 0.0014	-0.0145 ± 0.013	0.006 ± 0.034	-0.0195 ± 0.022	-0.006 ± 0.024	0.025 ± 0.047	0.037 ± 0.04	0.0015 ± 0.021	0.003 ± 0.013	0.0045 ± 0.0078
BE3C:CD87/uPAR	0.0035 ± 0.016	0.0165 ± 0.035	-0.0045 ± 0.022	0.0205 ± 0.026	0.0315 ± 0.029	0.0045 ± 0.021	-0.029 ± 0.025	-0.003 ± 0.0014	-0.0005 ± 0.00071	-0.0185 ± 0.022	0.009 ± 0.014	0.027 ± 0.0042	-0.018 ± 0.0085	-0.026 ± 0.0085	0.01 ± 0.0014	-0.001 ± 0.0099	0.0265 ± 0.016	-0.0125 ± 0.005
LPS:CXCL8/IL-8	0.006 ± 0.045	0.016 ± 0.047	0.004 ± 0.0042	0.0185 ± 0.0064	0.013 ± 0.016	-0.0055 ± 0.005	0.0145 ± 0.0078	-0.0075 ± 0.023	-0.016 ± 0.0071	0.022 ± 0.016	-0.0195 ± 0.035	0.0235 ± 0.053	-0.013 ± 0.02	-0.001 ± 0.0085	-0.002 ± 0.0071	0.002 ± 0.0071	0.0075 ± 0.015	0.0075 ± 0.039
SAg:CXCL9/MIG	0.002 ± 0.0085	0.015 ± 0.0042	0.003 ± 0.0099	-0.009 ± 0.0014	0.0015 ± 0.012	-0.0115 ± 0.0092	0.0055 ± 0.018	-0.0195 ± 0.012	-0.0095 ± 0.0021	-0.0065 ± 0.018	0.0015 ± 0.016	0.01 ± 0.0042	-0.0015 ± 0.0078	0.012 ± 0.0057	0.0025 ± 0.022	0.0075 ± 0.0021	0 ± 0.0014	0.0065 ± 0.0092
3C:CD87/uPAR	-0.007 ± 0.0028	-0.019 ± 0.028	-0.0055 ± 0.012	-0.0075 ± 0.0064	0.004	-0.0065 ± 0.022	0.0105 ± 0.025	-0.028 ± 0.047	-0.022 ± 0.072	0.0015 ± 0.077	-0.0175 ± 0.0021	-0.0215 ± 0.0035	-0.008 ± 0.011	-0.005 ± 0.011	0.0125 ± 0.013	-0.0025 ± 0.015	0.019 ± 0.018	0.0015 ± 0.0078
LPS:CD106/VCAM-1	0.0045 ± 0.016	-0.003 ± 0.035	-0.0045 ± 0.011	-0.0165 ± 0.0021	-0.0145 ± 0.0078	-0.0145 ± 0.0092	-0.033 ± 0.0014	-0.0265 ± 0.011	-0.0265 ± 0.00071	-0.0085 ± 0.021	-0.007 ± 0.04	-0.0225 ± 0.005	-0.0105 ± 0.018	-0.008 ± 0.02	-0.0055 ± 0.022	0.0185 ± 0.033	-0.02 ± 0.0042	-0.013 ± 0.033
BF4T:Keratin 8/18	-0.024	-0.0115 ± 0.0078	0.02 ± 0.0014	0.0005 ± 0.035	-0.0035 ± 0.053	0.023 ± 0.033	-0.003 ± 0.033	0.007 ± 0.033	0.0285 ± 0.033	0.0225 ± 0.011	-0.0415 ± 0.0064	-0.0615 ± 0.03	-0.032 ± 0.0028	-0.004 ± 0.0014	0.027 ± 0.016	0.004 ± 0.0085	-0.0075 ± 0.018	0.0205 ± 0.00071
LPS:CD62E/E-Selectin	0.006 ± 0.0099	0.0095 ± 0.012	0.0005 ± 0.0021	0.0095 ± 0.0092	0.0115 ± 0.011	-0.0215 ± 0.029	-0.023 ± 0.018	-0.0315 ± 0.0021	-0.034 ± 0.0014	0.0015 ± 0.013	0.0275 ± 0.025	0.013 ± 0.011	-0.007 ± 0.0014	-0.0195 ± 0.023	-0.0025 ± 0.0078	-0.0065 ± 0.0078	-0.0155 ± 0.015	0.003 ± 0.0057
SAg:Proliferation	0.011 ± 0.0085	0.009 ± 0.018	0.004 ± 0.0042	-0.045 ± 0.047	-0.128 ± 0.038	0.0155 ± 0.0064	0.0455 ± 0.013	0.0115 ± 0.029	0.001 ± 0.0014	0.0075 ± 0.0078	0.056 ± 0.016	0.0225 ± 0.03	-0.0205 ± 0.043	-0.0085 ± 0.019	-0.0025 ± 0.07	-0.025 ± 0.013	-0.0195 ± 0.023	-0.0055 ± 0.015
BT:sIL-2	-0.0185 ± 0.025	-0.0245 ± 0.039	-0.0455 ± 0.11	0.031 ± 0.028	-0.0025 ± 0.042	0.014 ± 0.035	0.022 ± 0.05	0.017 ± 0.018	-0.042 ± 0.037	0.027 ± 0.12	0.017 ± 0.016	-0.0155 ± 0.071	0.046 ± 0.016	-0.0205 ± 0.064	-0.007 ± 0.1	0.002 ± 0.059	-0.0075 ± 0.035	0.033 ± 0.042
BF4T:CD90	0.011	0 ± 0.0085	-0.013 ± 0.014	-0.003 ± 0.0028	-0.004 ± 0.031	0.0025 ± 0.0064	-0.002 ± 0.0071	-0.009 ± 0.011	-0.0045 ± 0.0064	-0.032 ± 0.013	-0.003 ± 0.0028	-0.0065 ± 0.005	-0.003 ± 0.014	0.003 ± 0.0014	0 ± 0.016	-0.008 ± 0.027	-0.008 ± 0.011	-0.0015 ± 0.011
